In PubChem BioAssay AID1259407 (Chemical Carcinogenesis Research Information System (CCRIS), 2018):
Active and inactive are the calls of the source. No rule for the calls is given here.

Test system: CCRIS mutagenicity, Ames/micronucleus/aberration tests
Experiment: CCRIS mutagenicity studies

CCC1CO1 (stereo unspecified)
mutagenic call (End Point: IN VITRO CHROMOSOMAL ABERRATIONS, Test System: CHO CELLS, Metabolic Activation: NONE): inactive; negative; authors report a positive response at the highest dose but few cells c
mutagenic call (End Point: IN VITRO CHROMOSOMAL ABERRATIONS, Test System: HUMAN PERIPHERAL LYMPHOCYTES, Metabolic Activation: NONE, Method: FISH (DUAL COLOR FOR CHROMOSOMES 7, 8, 12 AND X)): active; positive (hyperdiploidy of chromosomes 12 and x)
mutagenic call (End Point: IN VITRO MICRONUCLEUS, Test System: HUMAN PERIPHERAL LYMPHOCYTES, Metabolic Activation: NONE): active; positive
mutagenic call (Test System: AMES SALMONELLA TYPHIMURIUM, Strain/Indicator: TA98, Metabolic Activation: HAMSTER, LIVER, S-9, AROCLOR 1254, Method: PREINCUBATION): inactive; negative
mutagenic call (Test System: AMES SALMONELLA TYPHIMURIUM, Strain/Indicator: TA98, Metabolic Activation: NONE, Method: FLUCTUATION (MICROTITER)): inactive; negative
mutagenic call (Test System: AMES SALMONELLA TYPHIMURIUM, Strain/Indicator: TA98, Metabolic Activation: NONE, Method: PREINCUBATION): inactive; negative
mutagenic call (Test System: AMES SALMONELLA TYPHIMURIUM, Strain/Indicator: TA98, Metabolic Activation: NONE, Method: STANDARD PLATE): inactive; negative
mutagenic call (Test System: AMES SALMONELLA TYPHIMURIUM, Strain/Indicator: TA98, Metabolic Activation: RAT LIVER S-9, AROCLOR 1254, Method: FLUCTUATION (MICROTITER)): inactive; negative
mutagenic call (Test System: AMES SALMONELLA TYPHIMURIUM, Strain/Indicator: TA98, Metabolic Activation: RAT, LIVER, S-9, AROCLOR 1254, Method: PREINCUBATION): inactive; negative
mutagenic call (Test System: AMES SALMONELLA TYPHIMURIUM, Strain/Indicator: TA100, Metabolic Activation: HAMSTER, LIVER, S-9, AROCLOR 1254, Method: PREINCUBATION): active; positive
mutagenic call (Test System: AMES SALMONELLA TYPHIMURIUM, Strain/Indicator: TA100, Metabolic Activation: NONE, Method: PREINCUBATION): active; positive
mutagenic call (Test System: AMES SALMONELLA TYPHIMURIUM, Strain/Indicator: TA100, Metabolic Activation: RAT, LIVER, S-9, AROCLOR 1254, Method: PREINCUBATION): active; positive
mutagenic call (Test System: AMES SALMONELLA TYPHIMURIUM, Strain/Indicator: TA1535, Metabolic Activation: HAMSTER, LIVER, S-9, AROCLOR 1254, Method: PREINCUBATION): active; positive
mutagenic call (Test System: AMES SALMONELLA TYPHIMURIUM, Strain/Indicator: TA1535, Metabolic Activation: NONE, Method: PREINCUBATION): active; positive
mutagenic call (Test System: AMES SALMONELLA TYPHIMURIUM, Strain/Indicator: TA1535, Metabolic Activation: NONE, Method: STANDARD PLATE): active; positive
mutagenic call (Test System: AMES SALMONELLA TYPHIMURIUM, Strain/Indicator: TA1535, Metabolic Activation: RAT, LIVER, S-9, AROCLOR 1254, Method: PREINCUBATION): active; positive
mutagenic call (Test System: AMES SALMONELLA TYPHIMURIUM, Strain/Indicator: TA1537, Metabolic Activation: HAMSTER, LIVER, S-9, AROCLOR 1254, Method: PREINCUBATION): inactive; negative
mutagenic call (Test System: AMES SALMONELLA TYPHIMURIUM, Strain/Indicator: TA1537, Metabolic Activation: NONE, Method: FLUCTUATION (MICROTITER)): inactive; negative
mutagenic call (Test System: AMES SALMONELLA TYPHIMURIUM, Strain/Indicator: TA1537, Metabolic Activation: NONE, Method: PREINCUBATION): inactive; negative
mutagenic call (Test System: AMES SALMONELLA TYPHIMURIUM, Strain/Indicator: TA1537, Metabolic Activation: RAT LIVER S-9, AROCLOR 1254, Method: FLUCTUATION (MICROTITER)): inactive; negative
mutagenic call (Test System: AMES SALMONELLA TYPHIMURIUM, Strain/Indicator: TA1537, Metabolic Activation: RAT, LIVER, S-9, AROCLOR 1254, Method: PREINCUBATION): inactive; negative
mutagenic call (Test System: AMES SALMONELLA TYPHIMURIUM, Strain/Indicator: TA7001, Metabolic Activation: NONE, Method: FLUCTUATION (MICROTITER)): inactive; negative
mutagenic call (Test System: AMES SALMONELLA TYPHIMURIUM, Strain/Indicator: TA7001, Metabolic Activation: RAT LIVER S-9, AROCLOR 1254, Method: FLUCTUATION (MICROTITER)): inactive; negative
mutagenic call (Test System: AMES SALMONELLA TYPHIMURIUM, Strain/Indicator: TA7002, Metabolic Activation: NONE, Method: FLUCTUATION (MICROTITER)): inactive; negative
mutagenic call (Test System: AMES SALMONELLA TYPHIMURIUM, Strain/Indicator: TA7002, Metabolic Activation: RAT LIVER S-9, AROCLOR 1254, Method: FLUCTUATION (MICROTITER)): inactive; negative
mutagenic call (Test System: AMES SALMONELLA TYPHIMURIUM, Strain/Indicator: TA7003, Metabolic Activation: NONE, Method: FLUCTUATION (MICROTITER)): inactive; negative
mutagenic call (Test System: AMES SALMONELLA TYPHIMURIUM, Strain/Indicator: TA7003, Metabolic Activation: RAT LIVER S-9, AROCLOR 1254, Method: FLUCTUATION (MICROTITER)): inactive; negative
mutagenic call (Test System: AMES SALMONELLA TYPHIMURIUM, Strain/Indicator: TA7004, Metabolic Activation: NONE, Method: FLUCTUATION (MICROTITER)): active; positive
mutagenic call (Test System: AMES SALMONELLA TYPHIMURIUM, Strain/Indicator: TA7004, Metabolic Activation: RAT LIVER S-9, AROCLOR 1254, Method: FLUCTUATION (MICROTITER)): inactive; negative
mutagenic call (Test System: AMES SALMONELLA TYPHIMURIUM, Strain/Indicator: TA7005, Metabolic Activation: NONE, Method: FLUCTUATION (MICROTITER)): inactive; negative
mutagenic call (Test System: AMES SALMONELLA TYPHIMURIUM, Strain/Indicator: TA7005, Metabolic Activation: RAT LIVER S-9, AROCLOR 1254, Method: FLUCTUATION (MICROTITER)): inactive; negative
mutagenic call (Test System: AMES SALMONELLA TYPHIMURIUM, Strain/Indicator: TA7006, Metabolic Activation: NONE, Method: FLUCTUATION (MICROTITER)): inactive; negative
mutagenic call (Test System: AMES SALMONELLA TYPHIMURIUM, Strain/Indicator: TA7006, Metabolic Activation: RAT LIVER S-9, AROCLOR 1254, Method: FLUCTUATION (MICROTITER)): inactive; negative
mutagenic call (Test System: E. COLI, Strain/Indicator: WP2 UVRA, Metabolic Activation: HAMSTER, LIVER, S-9, AROCLOR 1254, Method: PREINCUBATION): inactive; negative
mutagenic call (Test System: E. COLI, Strain/Indicator: WP2 UVRA, Metabolic Activation: HAMSTER, LIVER, S-9, AROCLOR 1254, Method: STANDARD PLATE): inactive; negative
mutagenic call (Test System: E. COLI, Strain/Indicator: WP2 UVRA, Metabolic Activation: HAMSTER, LIVER, S-9, Method: STANDARD PLATE): inactive; negative
mutagenic call (Test System: E. COLI, Strain/Indicator: WP2 UVRA, Metabolic Activation: MOUSE, LIVER, S-9, AROCLOR 1254, Method: PREINCUBATION): inactive; negative
mutagenic call (Test System: E. COLI, Strain/Indicator: WP2 UVRA, Metabolic Activation: MOUSE, LIVER, S-9, AROCLOR 1254, Method: STANDARD PLATE): inactive; negative
mutagenic call (Test System: E. COLI, Strain/Indicator: WP2 UVRA, Metabolic Activation: MOUSE, LIVER, S-9, Method: PREINCUBATION): inactive; negative
mutagenic call (Test System: E. COLI, Strain/Indicator: WP2 UVRA, Metabolic Activation: MOUSE, LIVER, S-9, Method: STANDARD PLATE): inactive; negative
mutagenic call (Test System: E. COLI, Strain/Indicator: WP2 UVRA, Metabolic Activation: NONE, Method: PREINCUBATION): inactive; negative
mutagenic call (Test System: E. COLI, Strain/Indicator: WP2 UVRA, Metabolic Activation: NONE, Method: STANDARD PLATE): inactive; negative
mutagenic call (Test System: E. COLI, Strain/Indicator: WP2 UVRA, Metabolic Activation: RAT, LIVER, S-9, AROCLOR 1254, Method: PREINCUBATION): inactive; negative
mutagenic call (Test System: E. COLI, Strain/Indicator: WP2 UVRA, Metabolic Activation: RAT, LIVER, S-9, AROCLOR 1254, Method: STANDARD PLATE): inactive; negative
mutagenic call (Test System: E. COLI, Strain/Indicator: WP2 UVRA, Metabolic Activation: RAT, LIVER, S-9, Method: PREINCUBATION): inactive; negative
mutagenic call (Test System: E. COLI, Strain/Indicator: WP2 UVRA, Metabolic Activation: RAT, LIVER, S-9, Method: STANDARD PLATE): inactive; negative
